Source: paper PMC9458217, “Synthesis and Biological Evaluation of Cassane Diterpene (5α)-Vuacapane-8(14), 9(11)-Diene and of Some Related Compounds” (Molecules, 2022)
Values after ≈ are worked out from the molar mass of the structure shown. Values joined by “and” are separate entries in the source; they are usually repeats but may differ in a detail not shown here. Equal entries are not always repeated. Where two headings read alike, the source gives them in different places.

Tests used:
[1] = tested on: RAW 264.7 monocyte/macrophage murine cells; test: MTT cytotoxicity on RAW 264.7 cells; type: cell-based; settings: Mus musculus
Method: MTT is transformed to formazan in cells with metabolism capacity (viable cells), as the number of viable cells is proportional to formazan concentration; this assay was used to determine the cytotoxicity of the compounds.
In all experiments, subconfluent monolayer cells were used.
The effect of compounds on the cell viability was determined by the MTT method (Sigma, St. Louis, MO, USA). The cytotoxicity of the compounds was detected by measuring the absorbance of MTT dye staining of cells with metabolism capacity. […] Finally, after 72 h, 100 μL of MTT solution (0.5 mg/mL) in 50% of PBS and 50% of the medium was added to each well. After 1.5 h of incubation, formazan was re-suspended in 100 μL of DMSO, and each concentration was tested in triplicate.
(§1) Experimental cytotoxicity data were fitted to a sigmoidal function (y = ymax/ (x/a)^−b) by non-linear regression. […] Similar analyses were performed to obtain the IC50 of NO production (IC50 NO). All shown data are representative of at least two independent experiments performed in triplicate. All quantitative data were summarized as the means ± standard deviation (SD).

[2] = tested on: LPS-induced J774.A1 macrophage cells; parameters: method as in PMID 34990974; settings: 50 μM, natural compounds; cited from earlier work
[3] = tested on: HT29 human colorectal adenocarcinoma cell line; test: MTT cytotoxicity on HT29 cells; settings: HT-29, 72 h
Method: (§2) These studies were performed using the MTT assay, based on formazan dye formation and expressed as a percentage with respect to untreated control cells (100% of cell metabolism).
(§3) The effect of compounds on the cell viability was determined by the MTT method [27] (Sigma, St. Louis, MO, USA). The cytotoxicity of the compounds was detected by measuring the absorbance of MTT dye staining of cells with metabolism capacity. […] Finally, after 72 h, 100 μL of MTT solution (0.5 mg/mL) in 50% of PBS and 50% of the medium was added to each well. After 1.5 h of incubation, formazan was re-suspended in 100 μL of DMSO, and each concentration was tested in triplicate.
(§4) Experimental cytotoxicity data were fitted to a sigmoidal function (y = ymax/ (x/a)^−b) by non-linear regression. […] All shown data are representative of at least two independent experiments performed in triplicate. All quantitative data were summarized as the means ± standard deviation (SD).

[4] = tested on: B16-F10 mouse melanoma cells; test: MTT cytotoxicity on B16-F10 cells
Method: as §2, §3, §4

[5] = tested on: HepG2 human hepatocarcinome cell-line; test: MTT cytotoxicity on HepG2 cells; settings: HepG2, 72 h
Method: as §2, §3, §4

[6] = tested on: LPS-stimulated RAW 264.7 murine macrophage cells; test: Inhibition of NO production (nitrite, Griess reaction) in LPS-stimulated RAW 264.7 cells; type: cell-based; settings: for IC50: Mus musculus, RAW264.7, 72 h; for IC50 / IC50 NO: LPS-activated RAW 264.7, 72 h of incubation; for NO inhibition: 72 h
Method: The activation of the inflammatory process induces nitric oxide, NO, released as a second messenger. NO production can be used as the main indicator to assess inflammatory activity, which can be measured using nitrite (NO^2–) quantification (proportional to the released NO), determined through the Griess reaction. […] Inhibition percentages were calculated with respect to the increase between positive control (only LPS treated control cells) and negative control (untreated control cells).
The absorbance was referred to nitrite standard curve to determine the concentration of nitrite in the supernatant of each experimental sample. The percentage of NO production was determined, assigning 100% at the increase between negative control (untreated cells) and positive control (cells only treated with 10 μg/mL of LPS).
as §1

[7] = tested on: RAW 264.7 cells, activated by LPS; test: Cell cycle distribution of LPS-activated RAW 264.7 cells, flow cytometry with PI; type: cell-based, murine
Method: The cell-cycle distribution was analyzed by flow cytometry with propidium iodide (IP) staining (Figure 3). Significant growth arrest of the cell cycle in LPS-induced RAW 264.7 cells produced 100% detention in the G0/G1 phase (positive control) compared to the negative control (49.6%). After incubation with compound 20, the percentage of cells found in the G0/G1 phase was 29%, 32%, and 36%, respectively, at the assayed concentrations. Similar results were found for compound 16 (35%, 38%, and 39%) after 72 h of incubation at the same concentrations. This decrease was accompanied by the consequent increase in the number of cells in the S phase: 70%, 68%, and 56%, respectively, for compound 20, and 63%, 61%, and 59% for compound 16. […] This recovery of the cell cycle with respect to control cells (only LPS treated) could be a consequence of the anti-inflammatory effect produced by the tested compounds, which increase cell division, rescuing RAW 264.7 cells from LPS-induced arrest during their monocyte/macrophage differentiation process.
DNA content is directly proportional to the PI fluorescence; it allows us to determine the percentage of cells in each cell cycle phase. Using a fluorescence-activated cell sorter (FACS) at 488 nm in an Epics XL flow cytometer (Coulter Corporation, Hialeah, FL, USA), cell subpopulations could be visualized with different DNA contents. […] By treating cells only with LPS, the positive control was performed. However, the negative control was prepared, exposing cells […]. After treatment, cells were washed twice with PBS and trypsine solution, then resuspended in TBS 1X (10 Mm Tris, 150 Mm NaCl) and then Vindelov buffer (100 mM Tris, 100 Mm NaCl, 10 mg/mL Rnasa, 1 mg/mL PI, pH 8) was added. The samples were placed for 15 min on ice. Immediately before FACS analysis, cells were stained with 20 μL of 1 mg/mL PI solution. Data were analyzed to determine the percentage of cells in each cell cycle phase (G0/G1, S, and G2/M).

[8] = RAW264.7, RAW 264.7, MTT, 72 h of incubation, 20% cell viability inhibition, read-out: IC20
[9] = RAW264.7, RAW 264.7, MTT, 72 h of incubation, 80% cell viability inhibition, read-out: IC80
[10] = RAW264.7, RAW 264.7, MTT, 72 h of incubation, read-out: IC50

| SMILES | IC50 ([4]; Mus musculus, B16-F10, 72 h) | IC50 [5] | IC50 [6] | IC20 [1, 8] | IC80 [1, 9] | IC50 [1, 10] | IC50 ([3]; HT29, MTT, 72 h) | IC50 ([4]; 72 h) | NO inhibition ([6]; at ¾ IC50 concentration) | further results |
| --- | --- | --- | --- | --- | --- | --- | --- | --- | --- | --- |
| Cc1c2c(cc3c1CC[C@H]1C(C)(C)CCC[C@]31C)OC(=O)C2 [Compound 5, pterolobirin H] | – | – | – | – | – | – | – | – | – | IC20 ([1]; RAW264.7, 72 h): 34.9 ± 2.11 µg/mL (≈ 117 µM); IC80 ([1]; RAW264.7, 72 h): 64.2 ± 3.29 µg/mL (≈ 215 µM) |
| Cc1c2c(cc3occc13)[C@@]1(C)CCCC(C)(C)[C@@H]1CC2 [Compound 7, (5a)-vouacapane-8(14),9(11)-diene] | 31.7 ± 1.1 µg/mL (≈ 112 µM) | 14 ± 0.5 µg/mL (≈ 49.4 µM) | – | – | – | – | – | – | – | IC20 ([1]; RAW264.7, 72 h): 50.9 ± 1.61 µg/mL (≈ 180 µM); IC50 ([1]; RAW264.7, 72 h): 57.5 ± 1.06 µg/mL (≈ 204 µM); IC80 ([1]; RAW264.7, 72 h): 65.5 ± 0.95 µg/mL (≈ 232 µM); inhibition of NO production [2]: did not show any significant inhibition of NO production; IC50 [3]: 20.7 ± 1.09 µg/mL (≈ 73.2 µM) |
| COC(=O)c1ccc2c(c1C(=O)OC)CC[C@H]1C(C)(C)CCC[C@]21C [Compound 14] | < 10 µg/mL | 33.8 ± 0.8 µg/mL (≈ 98 µM) | 10.7 ± 1.14 µg/mL (≈ 31.1 µM) | 22.92 ± 0.13 µg/mL (≈ 66.5 µM) | 26.89 ± 0.02 µg/mL (≈ 78.1 µM) | 24.67 ± 0.04 µg/mL (≈ 71.6 µM) | 15.4 ± 2.72 µg/mL (≈ 44.8 µM) | 9.25 ± 0.74 µg/mL (≈ 26.9 µM) | – | – |
| COC(=O)C1=C(C(=O)OC)C2(C)CC[C@H]3C(C)(C)CCC[C@]3(C)C2=CC1 (some centres unmarked) [Compound 15] | 13 ± 1.8 µg/mL (≈ 36.1 µM) | 58.32 ± 0.32 µg/mL (≈ 162 µM) | 7.98 ± 0.1 µg/mL (≈ 22.1 µM) | 43.7 ± 2.37 µg/mL (≈ 121 µM) | 83.67 ± 0.64 µg/mL (≈ 232 µM) | 64.6 ± 1.39 µg/mL (≈ 179 µM) | 25.3 ± 0.89 µg/mL (≈ 70.2 µM) | – | – | – |
| COC(=O)C1=C(C(=O)OC)C2(C)CC[C@H]3C(C)(C)CCC[C@]3(C)C2=CC1=O (some centres unmarked) [Compound 16] | < 10 µg/mL | 26.7 ± 0.88 µg/mL (≈ 71.4 µM) | 2.98 ± 0.04 µg/mL (≈ 7.96 µM) | 14.5 ± 0.68 µg/mL (≈ 38.7 µM) | – | 26.7 ± 0.88 µg/mL (≈ 71.4 µM) | 11.9 ± 0.8 µg/mL (≈ 31.8 µM) | 6.01 ± 0.41 µg/mL (≈ 16 µM) | 100% | IC50 NO [6]: 5.71 ± 0.14 µg/mL (≈ 15.2 µM); NO inhibition ([6]; at ¼ IC50 concentration): 100%; NO inhibition ([6]; at ½ IC50 concentration): 100%; cells in the S phase ([7]; ¼ IC50, 72 h): 63%; percentage of cells in the G0/G1 phase ([7]; ¼ IC50, 72 h, LPS control 100%, negative control 49.6%): 35%; changes in the G2/M phase ([7]; ¼, ½ and ¾ IC50, 72 h): not significant; cells in the S phase ([7]; ½ IC50, 72 h): 61%; percentage of cells in the G0/G1 phase ([7]; ½ IC50, 72 h): 38%; cells in the S phase ([7]; ¾ IC50, 72 h): 59%; percentage of cells in the G0/G1 phase ([7]; ¾ IC50, 72 h): 39% |
| COC(=O)c1c(O)cc2c(c1C(=O)OC)CC[C@H]1C(C)(C)CCC[C@]21C [Compound 17] | < 10 µg/mL | 8.15 ± 0.1 µg/mL (≈ 22.6 µM) | 4.74 ± 1.27 µg/mL (≈ 13.2 µM) | 4.95 ± 0.13 µg/mL (≈ 13.7 µM) | 11.8 ± 2.97 µg/mL (≈ 32.7 µM) | 7.49 ± 0.86 µg/mL (≈ 20.8 µM) | 5.96 ± 0.55 µg/mL (≈ 16.5 µM) | 5.96 ± 0.55 µg/mL and 5.97 ± 0.55 µg/mL | 30.52% | – |
| COC(=O)c1c(O)cc2c(c1C)CC[C@H]1C(C)(C)CCC[C@]21C [Compound 18] | < 10 µg/mL | 13.57 ± 0.12 µg/mL (≈ 42.9 µM) | 31.4 ± 4.9 µg/mL (≈ 99.1 µM) | 7.32 ± 2.53 µg/mL (≈ 23.1 µM) | 20.4 ± 0.26 µg/mL (≈ 64.4 µM) | 13.1 ± 1.51 µg/mL (≈ 41.4 µM) | 30.7 ± 0.49 µg/mL (≈ 96.9 µM) | 5.96 ± 0.35 µg/mL (≈ 18.8 µM) | 11.06% | – |
| Cc1c(CO)c(O)cc2c1CC[C@H]1C(C)(C)CCC[C@]21C [Compound 19] | 48.8 ± 2.79 µg/mL (≈ 169 µM) | 12.2 ± 1.78 µg/mL (≈ 42.4 µM) | 27.57 ± 0.2 µg/mL (≈ 95.6 µM) | 70.83 ± 0.28 µg/mL (≈ 246 µM) | 78.94 ± 0.28 µg/mL (≈ 274 µM) | 74.65 ± 0.17 µg/mL (≈ 259 µM) | 49 ± 0.72 µg/mL (≈ 170 µM) | – | – | – |
| CC1(C)CCC[C@]2(C)c3cc(O)c(C=O)cc3CC[C@@H]12 [Compound 23] | 4.33 ± 0.27 µg/mL (≈ 15.9 µM) | 8.36 ± 1.77 µg/mL (≈ 30.7 µM) | 3.22 ± 0.05 µg/mL (≈ 11.8 µM) | 5.13 ± 0.18 µg/mL (≈ 18.8 µM) | 6.8 ± 0.24 µg/mL (≈ 25 µM) | 5.87 ± 0.18 µg/mL (≈ 21.6 µM) | 5.19 ± 0.17 µg/mL (≈ 19.1 µM) | – | 78.48% | IC50 NO [6]: 3.32 ± 0.05 µg/mL (≈ 12.2 µM) |
| CC1(C)CCC[C@]2(C)c3cc(O)c(CO)cc3CC[C@@H]12 [Compound 24] | 10.51 ± 0.01 µg/mL (≈ 38.3 µM) | 24.2 ± 2.71 µg/mL (≈ 88.3 µM) | 15.2 ± 2.13 µg/mL (≈ 55.4 µM) | 9.09 ± 0.03 µg/mL (≈ 33.1 µM) | 20.8 ± 0.48 µg/mL (≈ 75.6 µM) | 13.94 ± 0.07 µg/mL (≈ 50.8 µM) | 17.4 ± 1.97 µg/mL (≈ 63.5 µM) | – | did not cause any inhibition of NO release | – |
| CC1(C)CCC[C@]2(C)c3cc4c(cc3CC[C@@H]12)CC(=O)O4 [Compound 25] | 74.3 ± 2.19 µg/mL (≈ 261 µM) | 77.97 ± 0.72 µg/mL (≈ 274 µM) | 22.58 ± 0.05 µg/mL (≈ 79.4 µM) | 42.6 ± 0.74 µg/mL (≈ 150 µM) | 66.33 ± 0.35 µg/mL (≈ 233 µM) | 53.92 ± 0.36 µg/mL (≈ 190 µM) | 74.3 ± 2.19 µg/mL (≈ 261 µM) | – | 72.24% | – |
